Measurements: patent publication US6617450B1, “P-glycoproteins and uses thereof” (Becton Dickinson and Company, priority 1999, dated 2003)

Test system: cynomologous monkey PGP
Assay: Polarization of vinblastine transport across cynomologous monkey PGP transfected LLC-PK1 cell monolayers in Transwells
Type: cell-based, cynomologous monkey (Macaca fascicularis)
Conditions: PGP transfected cells, relative to control cells; vinblastine (0.1 μM) transport in Transwells
Description: Cynomologous monkey PGP cDNA (SEQ ID NO:3) is introduced into a clonal population of LLC-PK 1 cells in a vector that confers resistance to hygromycin B. LLC-PK1 cells are obtained from the American Type Culture Collections and are propagated in Medium 199 supplemented to 7% with fetal bovine serum. LLC-PK1 cells are recloned prior to transfection in order to assure homogeneity of the cell population. Briefly, cynomologous monkey PGP cDNA is incorporated into the p222CMV vector. […] The PGP cDNA is under the control of the cytomegalovirus (CMV) immediate early promoter. […] Expression of PGP is measured by the polarization of vinblastine (0.1 μM) transport in Transwells™.
LLC-PK1 cell based transport studies are conducted in 24 well Transwells™(Corning Costar, Catalog number 3415). […] Transport is measured under sink conditions in both the apical to basolateral (A to B) and basolateral to apical (B to A) directions. […] Quantitation of the amount of compound transported is by liquid scintillation counting (vinblastine) or HPLC with UV or mass spectrometric detection.
Functional expression of cynomologous monkey PGP is measured by the polarization of transport of vinblastine.

In the case of CC[C@]1(O)C[C@@H]2CN(CCc3c([nH]c4ccccc34)[C@@](C(=O)OC)(c3cc4c(cc3OC)N(C)[C@H]3[C@@](O)(C(=O)OC)[C@H](OC(C)=O)[C@]5(CC)C=CCN6CC[C@]43[C@@H]65)C2)C1 [vinblastine], the “B to A/A to B ratio” value is reported as “much higher ratio”.
